{
  "source": "paper PMC4589318",
  "about": "“Synthesis of Triazole Schiff’s Base Derivatives and Their Inhibitory Kinetics on Tyrosinase Activity” (PLoS ONE, 2015)",
  "key": {"[1]": {"experiment": "ABTS free-radical scavenging antioxidant assay", "conditions": "absorbance at 734 nm", "method": "ABTS free-radical scavenging assay was used to test the antioxidant capacity of compounds Y1 to Y4. The method can be found in many articles. 7 mM ABTS and 2.45 mM ammonium persulfate were blended and stored in a dark place 16 hours, and then diluted by 80% ethanol to obtain the working solution which gave an absorbance of 0.69 at 734 nm. The working solution and compounds were mixed and allowed to react for ten minutes, and then measured the absorbance at 734 nm (AI) was measured using spectrophotometer. L-ascorbic acid and 80% ethanol was used as a positive and blank control, respectively. The A0 value was the blank absorbance. The antioxidant rate (%) = (A0-AI)/A0 * 100%"}, "tyrosinase": {"biological_target": "T1, tyrosinase (Agaricus bisporus, UniProt C7FF04)", "T1 construct": "purchased Sigma Chemical Co. (St. Louis, MO, USA); host or cells: mushroom (natural source)", "T1 sequence (C7FF04 1-392 limits assumed)": "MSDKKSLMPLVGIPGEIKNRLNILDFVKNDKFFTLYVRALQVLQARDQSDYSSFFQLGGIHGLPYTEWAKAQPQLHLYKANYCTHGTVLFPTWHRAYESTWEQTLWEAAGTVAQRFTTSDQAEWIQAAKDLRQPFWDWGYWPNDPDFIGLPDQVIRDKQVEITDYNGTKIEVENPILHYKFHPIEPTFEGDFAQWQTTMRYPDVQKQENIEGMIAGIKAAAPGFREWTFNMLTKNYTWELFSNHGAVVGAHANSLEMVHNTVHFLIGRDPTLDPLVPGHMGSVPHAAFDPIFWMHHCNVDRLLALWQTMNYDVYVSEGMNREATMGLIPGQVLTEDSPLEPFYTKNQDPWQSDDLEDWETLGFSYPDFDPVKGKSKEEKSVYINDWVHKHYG", "experiment": "Fluorescence quenching of tyrosinase", "type": "binding, mushroom", "conditions": "0.3 mg/ml tyrosinase, excitation 280 nm, inhibitor 10 to 70 μM", "method": "Fluorescence quenching means the decrease of fluorescence intensity between the fluorescent molecules and solute molecules. This method was usually used to study the interaction between conformation of protein molecules and small molecules. Cary Eclipse fluorescence spectrophotometer was used to record the fluorescence intensities with an excitation wavelength of 280 nm and emission slit widths of 5 nm. […] In this study, the inhibitor was added in 0.3 mg/ml tyrosinase solution to detect the fluorescence intensity changes and the final concentrations of inhibitor range from 10 to 70 μM.\nFluorescence quenching can be divided into static quenching and dynamic quenching. Dynamic quenching is a process, which has energy or electron transfer, while the static quenching process will generate complexes without fluorescence. The quenching rate between the fluorescent molecules and quenching agents followed the Stem.Volmer curve equation [43]: F0/F=1+KSV[Q]\nIn the formula, F0 is the intensity of fluorescence without quenching agent, F is the fluorescence intensity after adding quencher, Ksv (L/mol) represents the relationship of dynamic equilibrium between biological macromolecules and fluorescence quencher molecules after diffusing and colliding, and [Q] is the concentration of quencher. From Fig 4D, the Ksv of Y1, Y2 and Y3 was determined to be 94437, 7160983 and 159186 L/mol, respectively."}, "mushroom tyrosinase": {"biological_target": "mushroom tyrosinase (Agaricus bisporus, UniProt C7FF04)", "sequence (C7FF04 1-392)": "as the sequence (C7FF04 1-392 limits assumed) above", "experiment": "Diphenolase activity of mushroom tyrosinase (L-DOPA substrate)", "type": "biochemical", "conditions": "for Inhibition type: Lineweaver-Burk plots; for Inhibition type / KIS (inhibitor bonding with enzyme-substrate complex) / K IS (Table 1) / Inhibitory mechanisms: diphenolase; for KIS (inhibitor bonding with enzyme-substrate complex) / K IS (Table 1): L-DOPA; for KIS (inhibitor bonding with enzyme-substrate complex): secondary plot of intercepts; for K IS (Table 1): unit not given; for Inhibitory mechanisms: residual activity vs enzyme concentration", "method": "L-Tyr and L-DOPA were used as the substrate to test the monophenolase and diphenolase activities of tyrosinase, respectively. The reaction system (3 ml) contained 1.1 mM L-Tyr or 0.5 mM L-DOPA, 25 mM PBS buffer (pH 6.8) and different concentrations of the inhbitors. For monophenolase and diphenolase activities, the final concentration of tyrosinase was 33.3μg/ml and 6μg/ml, respectively. The increased optical density with the oxidation of the substrates at 475 nm (the absorption coefficient was 3700 M^−1cm^−1) within a certain time were measured by DU800 spectrophotometer. […] The Michaelis-Menten constant Km of tyrosinase was determined by Lineweaver-Burk plot with different concentrations of L-DOPA as substrate and the inhibition constants KI and KIS were determined by the secondary plots of the apparent Km/Vm or 1/Vm versus the concentration of the inhibitors. The inhibition mechanism was reflected by the […] with various concentrations of mushroom tyrosinase."}},
  "data": [
    {"smiles": "NNc1nnc(S)n1N", "note": "[AHMZ, 4-Amino-3-hydrazino-5-mercapto-1,2,4-triazole, reference compound]", "values": [
      {"measurement": "antioxidant capacity rank order", "setting": "[1]", "value": "Y1 > Y2 > Y3 > Y4 > Vc > AHMZ"}
    ]},
    {"smiles": "Nn1c(S)nnc1N/N=C\\c1cccc(F)c1", "note": "[Compound Y1, (Z)-4-amino-5-(2-(3-fluorobenzylidene)hydrazinyl)-4H-1,2,4-triazole-3-thiol]", "values": [
      {"measurement": "Ksv (Stern-Volmer quenching constant)", "setting": "tyrosinase", "value": 94437, "unit": "L/mol"},
      {"measurement": "antioxidant capacity rank order", "setting": "[1]", "value": "Y1 > Y2 > Y3 > Y4 > Vc > AHMZ"},
      {"measurement": "Inhibition type", "setting": "mushroom tyrosinase", "value": "Mixed"},
      {"measurement": "KIS (inhibitor bonding with enzyme-substrate complex)", "setting": "mushroom tyrosinase", "value": 4, "unit": "µM"},
      {"measurement": "K IS (Table 1)", "setting": "mushroom tyrosinase", "value": 4},
      {"measurement": "Inhibitory mechanisms", "setting": "mushroom tyrosinase", "value": "Reversible"}
    ]},
    {"smiles": "Nn1c(S)nnc1N/N=C\\c1cccc(O)c1", "note": "[Compound Y2, (Z)-3-((2-(4-amino-5-mercapto-4H-1,2,4-triazol-3-yl)hydrazono)methyl)phenol]", "values": [
      {"measurement": "antioxidant capacity rank order", "setting": "[1]", "value": "Y1 > Y2 > Y3 > Y4 > Vc > AHMZ"},
      {"measurement": "Inhibition type", "setting": "mushroom tyrosinase", "value": "Mixed"},
      {"measurement": "KIS (inhibitor bonding with enzyme-substrate complex)", "setting": "mushroom tyrosinase", "value": 27.8, "unit": "µM"},
      {"measurement": "K IS (Table 1)", "setting": "mushroom tyrosinase", "value": 28},
      {"measurement": "Inhibitory mechanisms", "setting": "mushroom tyrosinase", "value": "Reversible"}
    ]},
    {"smiles": "Nn1c(S)nnc1N/N=C\\c1ccccc1O", "note": "[Compound Y3, (Z)-2-((2-(4-amino-5-mercapto-4H-1,2,4-triazol-3-yl)hydrazono)methyl)phenol]", "values": [
      {"measurement": "Ksv (Stern-Volmer quenching constant)", "setting": "tyrosinase", "value": 159186, "unit": "L/mol"},
      {"measurement": "antioxidant capacity rank order", "setting": "[1]", "value": "Y1 > Y2 > Y3 > Y4 > Vc > AHMZ"},
      {"measurement": "Inhibition type", "setting": "mushroom tyrosinase", "value": "Mixed"},
      {"measurement": "KIS (inhibitor bonding with enzyme-substrate complex)", "setting": "mushroom tyrosinase", "value": 21.04, "unit": "µM"},
      {"measurement": "K IS (Table 1)", "setting": "mushroom tyrosinase", "value": 21.04},
      {"measurement": "Inhibitory mechanisms", "setting": "mushroom tyrosinase", "value": "Reversible"}
    ]},
    {"smiles": "Oc1cccc(/C=N\\Nc2nnc(S)n2/N=C/c2cccc(O)c2)c1", "note": "[Compound Y4, 3-((Z)-(2-(4-(((E)-3-hydroxybenzylidene)amino)-5-mercapto-4H-1,2,4-triazol-3-yl)hydrazono)methyl)phenol]", "values": [
      {"measurement": "antioxidant capacity rank order", "setting": "[1]", "value": "Y1 > Y2 > Y3 > Y4 > Vc > AHMZ"},
      {"measurement": "antityrosinase activity (diphenolase screen)", "setting": "mushroom tyrosinase; L-DOPA substrate", "value": "almost do not have antityrosinase activity"}
    ]},
    {"smiles": "O=C1O[C@H]([C@@H](O)CO)C(O)=C1O", "note": "[Vc, L-ascorbic acid, reference compound]", "values": [
      {"measurement": "antioxidant capacity rank order", "setting": "[1]", "value": "Y1 > Y2 > Y3 > Y4 > Vc > AHMZ"}
    ]}
  ]
}
